Measurements: patent US6818622B2 (Darwin Discovery Ltd., priority 1997, dated 2004)

Key:
collagenase-1 (MMP-1) = target: T1, collagenase-1 (MMP-1) (Homo sapiens, UniProt P03956); experiment: MMP inhibition activity fluorimetric assay (Example A), MMP-1; type: biochemical; details: fluorimetric substrate 10 μM, 37° C.
T1 sequence (P03956 100-469): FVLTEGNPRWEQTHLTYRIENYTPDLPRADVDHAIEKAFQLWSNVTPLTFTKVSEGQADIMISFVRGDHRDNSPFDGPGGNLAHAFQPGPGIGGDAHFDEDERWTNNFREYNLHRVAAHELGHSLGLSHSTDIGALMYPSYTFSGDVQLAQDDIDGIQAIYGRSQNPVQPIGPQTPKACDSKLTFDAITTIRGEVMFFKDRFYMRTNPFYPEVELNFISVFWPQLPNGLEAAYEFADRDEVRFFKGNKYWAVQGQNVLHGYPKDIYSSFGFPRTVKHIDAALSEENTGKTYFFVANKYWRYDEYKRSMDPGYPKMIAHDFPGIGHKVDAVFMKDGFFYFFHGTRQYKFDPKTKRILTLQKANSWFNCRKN
Experimental: (§1) The potency of inhibitors of collagenase-1 (MMP-1), collagenase-2 (MMP-8), collagenase-3 (MMP-13), gelatinase-A (MMP-2), gelatinase-B (MMP-9) and stromelysin-1 (MMP-3) is determined using the following procedure:
(§2) Inhibitors are dissolved in dimethyl sulphoxide containing 0.02% β-mercaptoethanol, and serial dilutions are prepared. Activated enzyme is incubated in assay buffer containing 50 mM Tris, pH 7.4, 5 mM CaCl2, 0.002% NaN3 and Brij 35 in the presence and absence of inhibitor. Samples are preincubated at 37° C. for 15 minutes before the addition of the fluorimetric substrate (Mca-Pro-Leu-Gly-Leu-Dpa-Ala-Arg-NH2) to a final concentration of 10 μM.
(§3) The enzyme activity is compared to activity in a control devoid of inhibitor.

collagenase-2 (MMP-8) = collagenase-2 (MMP-8) (Homo sapiens, UniProt P22894); experiment: MMP inhibition activity fluorimetric assay (Example A), MMP-8; type: biochemical; details: fluorimetric substrate 10 μM, 37° C.
Experimental: as §1, §2, §3

collagenase-3 (MMP-13) = collagenase-3 (MMP-13) (Homo sapiens, UniProt P45452); experiment: MMP inhibition activity fluorimetric assay (Example A), MMP-13; type: biochemical; details: fluorimetric substrate 10 μM, 37° C.
Experimental: as §1, §2, §3

gelatinase-A (MMP-2) = target: T2, gelatinase-A (MMP-2) (Homo sapiens, UniProt P08253); experiment: MMP inhibition activity fluorimetric assay (Example A), MMP-2; type: biochemical; details: fluorimetric substrate 10 μM, 37° C.
T2 sequence (P08253 110-660): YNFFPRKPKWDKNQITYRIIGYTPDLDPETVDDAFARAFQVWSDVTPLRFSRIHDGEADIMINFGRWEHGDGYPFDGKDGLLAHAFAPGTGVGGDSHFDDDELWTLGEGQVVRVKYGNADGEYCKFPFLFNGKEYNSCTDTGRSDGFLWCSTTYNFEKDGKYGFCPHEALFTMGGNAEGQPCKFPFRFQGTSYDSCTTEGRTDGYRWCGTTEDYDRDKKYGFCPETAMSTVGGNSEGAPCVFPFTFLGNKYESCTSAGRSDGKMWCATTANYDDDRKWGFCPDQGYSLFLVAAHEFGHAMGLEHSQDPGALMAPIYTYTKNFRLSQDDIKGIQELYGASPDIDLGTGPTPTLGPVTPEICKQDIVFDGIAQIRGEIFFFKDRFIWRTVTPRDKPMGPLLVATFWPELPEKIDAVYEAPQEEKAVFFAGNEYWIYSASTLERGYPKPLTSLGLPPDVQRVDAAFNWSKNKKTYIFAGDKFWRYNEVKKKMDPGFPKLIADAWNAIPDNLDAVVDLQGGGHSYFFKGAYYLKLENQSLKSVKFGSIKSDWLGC
Experimental: as §1, §2, §3

gelatinase-B (MMP-9) = gelatinase-B (MMP-9) (Homo sapiens, UniProt P14780); experiment: MMP inhibition activity fluorimetric assay (Example A), MMP-9; type: biochemical; details: fluorimetric substrate 10 μM, 37° C.
Experimental: as §1, §2, §3

stromelysin-1 (MMP-3) = stromelysin-1 (MMP-3) (Homo sapiens, UniProt P08254); experiment: MMP inhibition activity fluorimetric assay (Example A), MMP-3; type: biochemical; details: fluorimetric substrate 10 μM, 37° C.
Experimental: as §1, §2, §3

[1] = test system: production of TNFα by peripheral blood mononuclear cells (PBMC); experiment: Inhibition of TNFα production (Example B); type: cell-based; details: read-out: Example B: inhibitor concentration effecting 50% inhibition of the production of TNFα; PBMC stimulated with LPS, 18 hours, ELISA
Experimental: PBMC are isolated from buffy coats by standard procedures using Ficoll. […] After 18 hours the supernatant is assayed for the levels of TNFα using a commercially available ELISA kit. The activity in the presence of 100 μM inhibitor or dilutions thereof is compared to activity in a control devoid of inhibitor.

[2] = test system: L-selectin shedding by peripheral blood mononuclear cells (PBMC); experiment: Inhibition of L-selectin shedding (Example C); type: cell-based; details: 20 min, read-out: Example C: inhibitor concentration effecting 50% inhibition of the shedding of L-selectin, PBMC stimulated with PMA, ELISA
Experimental: An assay of L-selectin shedding by peripheral blood mononuclear cells (PBMC) is conducted as follows: PBMC are isolated from buffy coats by standard procedures using Ficoll. A 100 μM solution of the inhibitor being tested or dilutions thereof is incubated for 20 min at 37° C. in an atmosphere of 5% CO2 with 4×10^6/ml PBMC stimulated with PMA. The cells are centrifuged down and the supernatants tested for sL-selectin using a commercially available ELISA kit. The activity in the presence of 100 μM inhibitor or dilutions thereof is compared to activity in a control devoid of inhibitor.

[3] = test system: sIL-1RII shedding by PBMC; experiment: Inhibition of sIL-1RII shedding (Example D); type: cell-based; details: read-out: Example D: inhibitor concentration effecting 50% inhibition of the shedding of sIL-1RII; PBMC stimulated with IL-13, 18 h, ELISA
Experimental: An assay of sIL-1RII shedding by PBMC is conducted as follows: PBMC are isolated from buffy coats by standard procedures using Ficoll. A 100 μM solution of the inhibitor being tested or dilutions thereof are incubated for 18 h at 37° C. in an atmosphere of 5% CO2 with 2×10^6/ml PBMC stimulated with IL-13. The cells are centrifuged down and the supernatants tested for sIL-1RII using a commercially available ELISA kit. The activity in the presence of 100 μM inhibitor or dilutions thereof is compared to activity in a control devoid of inhibitor.

[4] = test system: sIL-6R shedding by HL-60 cells; experiment: Inhibition of IL-6R shedding (Example E); type: cell-based; details: Homo sapiens, read-out: Example E: inhibitor concentration effecting 50% inhibition of the shedding of IL-6R; HL-60 cells stimulated with PMA, 24 h, ELISA
Experimental: An assay of sIL-6R shedding by HL-60 cells is conducted as follows: PBMC are isolated from buffy coats by standard procedures using Ficoll. A 100 μM solution of the inhibitor being tested or dilutions thereof is incubated for 24 h at 37° C. in an atmosphere of 5% CO2 with 2×10^6/ml HL-60 cells stimulated with PMA. The cells are centrifuged down and the supernatants tested for sIl-6R using a commercially available ELISA kit. The activity in the presence of 100 μM inhibitor or dilutions thereof is compared to activity in a control devoid of inhibitor.

[5] = test system: shedding of TNF RII by THP-1 cells (human monocytes); experiment: Inhibition of TNF RII shedding (Example F); type: cell-based; details: read-out: Example F: inhibitor concentration effecting 50% inhibition of the shedding of TNF RII, THP-1 cells stimulated with LPS, 18 hours, ELISA
Experimental: After 18 hours the supernatant is assayed for the levels of sTNF RII using a commercially available ELISA kit. The activity in the presence of 0.1 mM inhibitor or dilutions thereof is compared to activity in a control devoid of inhibitor.

[6] = test system: marmoset joints and tendons; experiment: Marmoset tendonitis study; type: in vivo; details: oral dosing at 30 and 100 mg/kg for 3 months; for Plasma levels on repeated plasma sampling: up to 9 h post-dose
Experimental: Specific examples of compounds showing the desired profile are those of Examples 1 and 2 and cpd. 3 (see below). These three compounds have been tested in the marmoset tendonitis study. This procedure for this study has been defined by Wojtowicz-Praga et al, supra. The study was performed with oral dosing at 30 and 100 mg/kg for 3 months. […] See Hooper et al, supra.

Chain of gelatinase-B (MMP-9) (P14780 107-707 limits assumed, species assumed): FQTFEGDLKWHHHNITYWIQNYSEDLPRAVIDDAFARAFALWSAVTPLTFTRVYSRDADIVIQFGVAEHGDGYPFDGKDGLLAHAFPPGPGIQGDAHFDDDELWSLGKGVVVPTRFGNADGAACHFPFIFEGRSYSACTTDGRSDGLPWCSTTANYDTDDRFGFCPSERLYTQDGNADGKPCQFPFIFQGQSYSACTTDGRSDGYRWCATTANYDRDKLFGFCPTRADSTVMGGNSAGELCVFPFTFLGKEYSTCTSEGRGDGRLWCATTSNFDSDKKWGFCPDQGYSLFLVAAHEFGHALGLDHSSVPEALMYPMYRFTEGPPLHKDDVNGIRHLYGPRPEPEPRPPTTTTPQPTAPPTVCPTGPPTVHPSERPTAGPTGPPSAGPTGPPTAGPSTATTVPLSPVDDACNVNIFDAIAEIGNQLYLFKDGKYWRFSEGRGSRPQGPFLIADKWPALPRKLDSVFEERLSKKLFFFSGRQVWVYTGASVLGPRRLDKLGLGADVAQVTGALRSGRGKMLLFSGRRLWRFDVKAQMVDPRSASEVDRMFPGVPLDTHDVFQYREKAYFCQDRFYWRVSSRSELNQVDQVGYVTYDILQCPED
Chain of stromelysin-1 (MMP-3) (P08254 100-477, species assumed): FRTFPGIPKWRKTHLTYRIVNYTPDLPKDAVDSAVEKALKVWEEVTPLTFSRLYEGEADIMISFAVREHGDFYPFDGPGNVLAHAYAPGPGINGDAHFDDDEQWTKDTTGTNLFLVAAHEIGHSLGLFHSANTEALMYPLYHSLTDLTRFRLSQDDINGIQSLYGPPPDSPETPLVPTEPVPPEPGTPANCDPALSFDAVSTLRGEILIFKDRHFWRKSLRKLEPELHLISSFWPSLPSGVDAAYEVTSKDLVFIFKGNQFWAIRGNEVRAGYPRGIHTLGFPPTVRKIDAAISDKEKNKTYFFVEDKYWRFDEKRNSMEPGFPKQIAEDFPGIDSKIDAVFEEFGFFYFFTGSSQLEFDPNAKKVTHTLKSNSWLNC
Chain of collagenase-2 (MMP-8) (P22894 101-467, species assumed): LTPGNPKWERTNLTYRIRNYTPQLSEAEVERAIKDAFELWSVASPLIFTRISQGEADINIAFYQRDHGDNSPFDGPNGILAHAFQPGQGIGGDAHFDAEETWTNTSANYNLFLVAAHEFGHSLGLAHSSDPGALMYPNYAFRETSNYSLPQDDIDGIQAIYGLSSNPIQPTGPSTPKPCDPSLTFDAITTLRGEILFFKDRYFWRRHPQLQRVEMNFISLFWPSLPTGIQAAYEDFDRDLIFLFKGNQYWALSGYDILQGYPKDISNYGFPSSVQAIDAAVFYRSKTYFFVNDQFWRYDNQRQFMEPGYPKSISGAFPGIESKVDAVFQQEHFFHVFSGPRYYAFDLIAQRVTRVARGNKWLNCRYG

IC50 (collagenase-1 (MMP-1))	IC50 (collagenase-2 (MMP-8))	IC50 (collagenase-3 (MMP-13))	IC50 (gelatinase-A (MMP-2))	IC50 (gelatinase-B (MMP-9))	IC50 (stromelysin-1 (MMP-3))	IC50 [4]	IC50 [5]	SMILES	IC50 [1]	IC50 [2]	IC50 [3]	Continuous clinical observation [6]	Histological observation of joints and tendons [6]	Plasma levels on repeated plasma sampling [6]
28 nM	9 nM	2 nM	15 nM	5 nM	179 nM	> 50000 nM	> 50000 nM	CNC(=O)[C@@H](NC(=O)[C@H](CC(C)C)NC(=O)[C@@H](S)CCCN1C(=O)c2ccccc2C1=O)C(C)(C)C [Cpd. 3, (S)-N-[2-mercapto-5-phthalimido]pentanoyl-L-leucyl-(S)-tert-leucine N-methylamide]	10000 nM	> 50000 nM	> 50000 nM	no adverse effects	no adverse effects on joints and tendons	sustained levels in excess of the enzymes' IC50
12 nM	10 nM	4 nM	130 nM	53 nM	381 nM	> 50000 nM	> 50000 nM	CNC(=O)[C@@H](NC(=O)[C@H](CC(C)C)NC(=O)[C@@H](S)CCN1C(=O)CCC1=O)C(C)(C)C [Ex. 1, 2S-[4-(2,5-Dioxopyrrolidin-1-yl)-2S-mercaptobutyrylamino]-4-methylpentanoic Acid (2,2-Dimethyl-1S-methylcarbamoylpropyl)-amide]	> 50000 nM	> 50000 nM	38000 nM	no adverse effects	no adverse effects on joints and tendons	sustained levels in excess of the enzymes' IC50
25 nM	10 nM	4 nM	41 nM	25 nM	157 nM	> 50000 nM	> 50000 nM	CNC(=O)[C@@H](NC(=O)[C@H](CC(C)C)NC(=O)[C@@H](S)CCN1C(=O)N(C)C(C)(C)C1=O)C(C)(C)C [Ex. 2, 2S-[2S-Mercapto-4-(3,4,4-trimethyl-2,5-dioxoimidazolidin-1-yl)butyrylamino]-4-methylpentanoic Acid (2,2-Dimethyl-1S-methylcarbamoylpropyl)amide]	> 50000 nM	> 50000 nM	> 50000 nM	no adverse effects	no adverse effects on joints and tendons	sustained levels in excess of the enzymes' IC50
